Reference: patent publication US8334316B2, “Substituted organosulfur compounds and methods of using thereof” (ACEA Biosciences, Inc., priority 2004, dated 2012)

Assay: Acute toxicity, single intravenous injection, LD50 (Bliss method) in Kunming mice
Type: in vivo
Method: To evaluate the in vivo acute, intravenous toxicity of DBTS and ACEA100108 (a derivative of DBTS, see Table 33), the experiments were performed in non-tumor bearing, normal Kunming mice by monitoring the acute response of mice to a single dose of DBTS or ACEA100108 via intravenous injection (i.v.). The number of death for the treated mice was monitored and recorded. LD50 values for these compounds were calculated. Details of the study are provided below.
The experiments to test DBTS and ACEA100108 acute toxicity were performed in mice. The test mice were randomly divided into six groups (five dosing groups and one control group). Each group contained 20 Kunming strain mice, and among them, 50% were male and 50% were female. After administration of a single dose of DBTS or ACEA100108 via intravenous injection (i.v.), the acute response to DBTS or ACEA100108 compound, and the death of the treated mice during the first two weeks were monitored and recorded. The LD50 value was calculated using the Bliss method.
Materials and Method. The test chemical compound were DBTS and ACEA100108, which were dissolved into hydrogenated castor oil in the pre-warmed water bath and made as a 20 mg/ml solution. The solution was further diluted to desired experiment concentrations with the normal saline. The administration volume was 0.5 ml i.v. per mouse and the injection speed was 0.5 ml/0.5 min.
The experimental mice were Kunming strain, provided by the Experimental Animal Department, Shanghai Pharmaceutical Industry Institute. The certificate number of the facility was Animal Facility Certification Number 107. The average weight of the mice was 18-20 gram. Each test group contained 20 Kunming strain mice, and among them, 10 mice were male and 10 mice were female. […] The mice in the control group were only given the same volume of the solvent, which were diluted hydrogenated castor oil. All the testing mice were given a single intravenous injection of DBTS, ACEA100108, or the solvent that served as the control at the injection speed of 0.5 ml/0.5 min. The acute response to DBTS, ACEA100108 or the solvent immediately after the administration, as well as weight change, and the death within the first two weeks of the administration were monitored and recorded. The intravenous injection LD50 values in mice were calculated using the Bliss method.

[1] = 50% male, 50% female, 163.8 mg/kg, 20 animals
[2] = 50% male, 50% female, 204.8 mg/kg, 20 animals
[3] = 50% male, 50% female, 256 mg/kg, 20 animals
[4] = 50% male, 50% female, 320 mg/kg, 20 animals
[5] = 50% male, 50% female, 400 mg/kg, 20 animals
[6] = 50% male, 50% female, 500 mg/kg, 20 animals
[7] = Female, 163.8 mg/kg, 10 animals
[8] = Female, 204.8 mg/kg, 10 animals

Structure (SMILES): Fc1ccc(CSSSCc2ccc(F)cc2)cc1 [ACEA100108, Di(p-fluorobenzyl)trisulfide]
- Dead animals on day 1 after the single intravenous injection [1]: 0
- Dead animals on day 2 after the single intravenous injection [1]: 0
- Dead animals on day 3 after the single intravenous injection [1]: 0
- Dead animals on day 4 after the single intravenous injection [1]: 0
- Dead animals on day 5 after the single intravenous injection [1]: 0
- Dead animals on day 6 after the single intravenous injection [1]: 0
- Dead animals on day 7 after the single intravenous injection [1]: 0
- Dead animals on day 8 after the single intravenous injection [1]: 0
- Dead animals on day 9 after the single intravenous injection [1]: 0
- Dead animals on days 10-14 after the single intravenous injection [1]: 0 - - - 0
- Percentage of dead animals [1]: 0%
- Dead animals on day 1 after the single intravenous injection [2]: 0
- Dead animals on day 2 after the single intravenous injection [2]: 0
- Dead animals on day 3 after the single intravenous injection [2]: 1
- Dead animals on day 4 after the single intravenous injection [2]: 0
- Dead animals on day 5 after the single intravenous injection [2]: 0
- Dead animals on day 6 after the single intravenous injection [2]: 0
- Dead animals on day 7 after the single intravenous injection [2]: 0
- Dead animals on day 8 after the single intravenous injection [2]: 0
- Dead animals on day 9 after the single intravenous injection [2]: 0
- Dead animals on days 10-14 after the single intravenous injection [2]: 0 - - - 0
- Percentage of dead animals [2]: 5%
- Dead animals on day 1 after the single intravenous injection [3]: 0
- Dead animals on day 2 after the single intravenous injection [3]: 4
- Dead animals on day 3 after the single intravenous injection [3]: 0
- Dead animals on day 4 after the single intravenous injection [3]: 2
- Dead animals on day 5 after the single intravenous injection [3]: 0
- Dead animals on day 6 after the single intravenous injection [3]: 0
- Dead animals on day 7 after the single intravenous injection [3]: 0
- Dead animals on day 8 after the single intravenous injection [3]: 0
- Dead animals on day 9 after the single intravenous injection [3]: 0
- Dead animals on days 10-14 after the single intravenous injection [3]: 0 - - - 0
- Percentage of dead animals [3]: 30%
- Dead animals on day 2 after the single intravenous injection [4]: 2
- Dead animals on day 3 after the single intravenous injection [4]: 5
- Dead animals on day 4 after the single intravenous injection [4]: 2
- Dead animals on day 5 after the single intravenous injection [4]: 0
- Dead animals on day 6 after the single intravenous injection [4]: 0
- Dead animals on day 7 after the single intravenous injection [4]: 0
- Dead animals on day 8 after the single intravenous injection [4]: 0
- Dead animals on day 9 after the single intravenous injection [4]: 0
- Dead animals on days 10-14 after the single intravenous injection [4]: 0 - - - 0
- Percentage of dead animals [4]: 45%
- Dead animals on day 2 after the single intravenous injection [5]: 8
- Dead animals on day 3 after the single intravenous injection [5]: 5
- Dead animals on day 4 after the single intravenous injection [5]: 0
- Dead animals on day 5 after the single intravenous injection [5]: 2
- Dead animals on day 6 after the single intravenous injection [5]: 0
- Dead animals on day 7 after the single intravenous injection [5]: 0
- Dead animals on day 8 after the single intravenous injection [5]: 0
- Dead animals on day 9 after the single intravenous injection [5]: 0
- Dead animals on days 10-14 after the single intravenous injection [5]: 0 - - - 0
- Percentage of dead animals [5]: 75%
- Dead animals on day 1 after the single intravenous injection [6]: 20
- Dead animals on day 2 after the single intravenous injection [6]: 0
- Dead animals on day 3 after the single intravenous injection [6]: 0
- Dead animals on day 4 after the single intravenous injection [6]: 0
- Dead animals on day 5 after the single intravenous injection [6]: 0
- Dead animals on day 6 after the single intravenous injection [6]: 0
- Dead animals on day 7 after the single intravenous injection [6]: 0
- Dead animals on day 8 after the single intravenous injection [6]: 0
- Dead animals on day 9 after the single intravenous injection [6]: 0
- Dead animals on days 10-14 after the single intravenous injection [6]: 0 - - - 0
- Percentage of dead animals [6]: 100%
- Dead animals on day 1 after the single intravenous injection [7]: 0
- Dead animals on day 2 after the single intravenous injection [7]: 0
- Dead animals on day 3 after the single intravenous injection [7]: 0
- Dead animals on day 4 after the single intravenous injection [7]: 0
- Dead animals on day 5 after the single intravenous injection [7]: 0
- Dead animals on day 6 after the single intravenous injection [7]: 0
- Dead animals on day 7 after the single intravenous injection [7]: 0
- Dead animals on day 8 after the single intravenous injection [7]: 0
- Dead animals on day 9 after the single intravenous injection [7]: 0
- Dead animals on days 10-14 after the single intravenous injection [7]: 0 - - - 0
- Percentage of dead animals [7]: 0%
- Average animal weight, End (Female, 163.8 mg/kg, Beginning 19.6): 24.2
- Dead animals on day 1 after the single intravenous injection [8]: 0
- Dead animals on day 2 after the single intravenous injection [8]: 0
- Dead animals on day 3 after the single intravenous injection [8]: 0
- Dead animals on day 4 after the single intravenous injection [8]: 0
- Dead animals on day 5 after the single intravenous injection [8]: 0
- Dead animals on day 6 after the single intravenous injection [8]: 0
- Dead animals on day 7 after the single intravenous injection [8]: 0
- Dead animals on day 8 after the single intravenous injection [8]: 0
- Dead animals on day 9 after the single intravenous injection [8]: 0
- Dead animals on days 10-14 after the single intravenous injection [8]: 0 - - - 0
- Percentage of dead animals [8]: 0%
- Average animal weight, End (Female, 204.8 mg/kg, Beginning 20.5): 24.3
- Dead animals on day 1 after the single intravenous injection (Female, 256 mg/kg, 10 animals): 0
- Dead animals on day 2 after the single intravenous injection (Female, 256 mg/kg, 10 animals): 2
- Dead animals on day 3 after the single intravenous injection (Female, 256 mg/kg, 10 animals): 0
- Dead animals on day 4 after the single intravenous injection (Female, 256 mg/kg, 10 animals): 1
- Dead animals on day 5 after the single intravenous injection (Female, 256 mg/kg, 10 animals): 0
- Dead animals on day 6 after the single intravenous injection (Female, 256 mg/kg, 10 animals): 0
- Dead animals on day 7 after the single intravenous injection (Female, 256 mg/kg, 10 animals): 0
- Dead animals on day 8 after the single intravenous injection (Female, 256 mg/kg, 10 animals): 0
- Dead animals on day 9 after the single intravenous injection (Female, 256 mg/kg, 10 animals): 0
- Dead animals on days 10-14 after the single intravenous injection (Female, 256 mg/kg, 10 animals): 0 - - - 0
- Percentage of dead animals (Female, 256 mg/kg, 10 animals): 30%
- Average animal weight, End (Female, 256 mg/kg, Beginning 20.1): 24.6
- Dead animals on day 1 after the single intravenous injection (Female, 320 mg/kg, 10 animals): 2
- Dead animals on day 2 after the single intravenous injection (Female, 320 mg/kg, 10 animals): 2
- Dead animals on day 3 after the single intravenous injection (Female, 320 mg/kg, 10 animals): 1
- Dead animals on day 4 after the single intravenous injection (Female, 320 mg/kg, 10 animals): 0
- Dead animals on day 5 after the single intravenous injection (Female, 320 mg/kg, 10 animals): 0
- Dead animals on day 6 after the single intravenous injection (Female, 320 mg/kg, 10 animals): 0
- Dead animals on day 7 after the single intravenous injection (Female, 320 mg/kg, 10 animals): 0
